Patent US10947188B2, “Small molecule ferroptosis inducers” (THE TRUSTEES OF COLUMBIA UNIVERSITY IN THE CITY OF NEW YORK, priority 2016, dated 2021)

What was measured:
HT-1080 = experiment: Modulatory profiling: Alamar Blue viability, lethal compound cotreated with death modulator (EC50, AUC); format: cell-based; parameters: AUC, modulator HT.3MA / AUC, modulator HT.ALLN / AUC HT.ATA / AUC HT.ActD / AUC HT.BHA / AUC HT.BHT / AUC HT.BocD / AUC HT.CHX / AUC HT.Co2+ / AUC HT.DPQ / AUC HT.EGTA / AUC HT.Lmim / AUC HT.NAD+ / AUC HT.Nec-1 / AUC HT.SP600125 / AUC HT.TLCK / AUC HT.U0126: unit not given beside the values; conditions: for AUC HT.ATA: HT-1080, modulator ATA; for AUC HT.ActD: HT-1080, modulator ActD; for AUC HT.BHA: HT-1080, modulator BHA; for AUC HT.BHT: HT-1080, modulator BHT; for AUC HT.BocD: HT-1080, modulator BocD; for AUC HT.CHX: HT-1080, modulator CHX; for AUC HT.Co2+: HT-1080, modulator Co2+; for AUC HT.CspA: HT-1080, modulator CspA; for AUC HT.DPQ: HT-1080, modulator DPQ; for AUC HT.EGTA: HT-1080, modulator EGTA; for AUC HT.Gd3+: HT-1080, modulator Gd3+; for AUC HT.LNAME: HT-1080, modulator LNAME; for AUC HT.Lmim: HT-1080, modulator Lmim; for AUC HT.NAD+: HT-1080, modulator NAD+; for AUC HT.NMMA: HT-1080, modulator NMMA; for AUC HT.Nec-1: HT-1080, modulator Nec-1; for AUC HT.Pepstatin: HT-1080, modulator Pepstatin; for AUC HT.SP600125: HT-1080, modulator SP600125; for AUC HT.TLCK: HT-1080, modulator TLCK; for AUC HT.U0126: HT-1080, modulator U0126; for HT.atoc (AUC) / HT.bCarotene (AUC) / HT.deferox (AUC) / HT.digoxin (AUC) / HT.trolox (AUC) / HT.zVAD (AUC): HT-1080; for HT.atoc (AUC): modulator atoc; for HT.bCarotene (AUC): modulator bCarotene; for HT.deferox (AUC): modulator deferox; for HT.digoxin (AUC): modulator digoxin; for HT.trolox (AUC): modulator trolox; for HT.zVAD (AUC): modulator zVAD; for AUC, modulator HT.3MA / AUC, modulator HT.ALLN: HT-1080 cells, modulatory profile value (AUC); for AUC, modulator HT.3MA: lethal compound cotreated with modulator 3MA; for AUC, modulator HT.ALLN: lethal compound cotreated with modulator ALLN; for AUC HT.BHA: reference of the scale not given here; for AUC HT.EGTA: reference of the scale not given here
BJeLR = experiment: as above; format: cell-based, human; parameters: AUC, modulator BJ.Gd3+ / AUC, modulator BJ.LNAME / AUC, modulator BJ.Lmin / AUC, modulator BJ.3MA / AUC, modulator BJ.ALLN / AUC, modulator BJ.Boc D / AUC, modulator BJ.CHX / AUC, modulator BJ.Co2+ / AUC, modulator BJ.Nec-1 / AUC, modulator BJ.Pepstatin / AUC, modulator BJ.TLCK / AUC, modulator BJ.atoc / AUC, modulator BJ.trolox / AUC, modulator BJ.zVAD: unit not given beside the values; conditions: BJeLR cells, modulatory profile value (AUC); for AUC, modulator BJ.3MA: lethal compound cotreated with modulator 3MA; for AUC, modulator BJ.ALLN: lethal compound cotreated with modulator ALLN; for AUC, modulator BJ.Boc D: lethal compound cotreated with modulator Boc D; for AUC, modulator BJ.CHX: lethal compound cotreated with modulator CHX; for AUC, modulator BJ.Co2+: lethal compound cotreated with modulator Co2+; for AUC, modulator BJ.DPQ: lethal compound cotreated with modulator DPQ; for AUC, modulator BJ.Gd3+: lethal compound cotreated with modulator Gd3+; for AUC, modulator BJ.LNAME: lethal compound cotreated with modulator LNAME; for AUC, modulator BJ.Lmin/NAD+: lethal compound cotreated with modulator Lmin/NAD+; for AUC, modulator BJ.Lmin: lethal compound cotreated with modulator Lmin; for AUC, modulator BJ.NAD+: lethal compound cotreated with modulator NAD+; for AUC, modulator BJ.NMMA: lethal compound cotreated with modulator NMMA; for AUC, modulator BJ.Nec-1: lethal compound cotreated with modulator Nec-1; for AUC, modulator BJ.Pepstatin: lethal compound cotreated with modulator Pepstatin; for AUC, modulator BJ.TLCK: lethal compound cotreated with modulator TLCK; for AUC, modulator BJ.atoc: lethal compound cotreated with modulator atoc; for AUC, modulator BJ.trolox: lethal compound cotreated with modulator trolox; for AUC, modulator BJ.zVAD: lethal compound cotreated with modulator zVAD; for AUC, modulator BJ.3MA: reference of the scale not given here; for AUC, modulator BJ.ALLN: reference of the scale not given here; for AUC, modulator BJ.Boc D: reference of the scale not given here; for AUC, modulator BJ.CHX: reference of the scale not given here; for AUC, modulator BJ.Co2+: reference of the scale not given here; for AUC, modulator BJ.DPQ: reference of the scale not given here; for AUC, modulator BJ.Gd3+: reference of the scale not given here; for AUC, modulator BJ.LNAME: reference of the scale not given here; for AUC, modulator BJ.NAD+: reference of the scale not given here; for AUC, modulator BJ.NMMA: reference of the scale not given here; for AUC, modulator BJ.Nec-1: reference of the scale not given here; for AUC, modulator BJ.Pepstatin: reference of the scale not given here; for AUC, modulator BJ.TLCK: reference of the scale not given here

COc1ccccc1/C=C/C1(C(=O)NC2CCCC2)CC(=O)N1c1ccc(F)cc1 (centres unmarked) [CIL1]
AUC HT.ATA (HT-1080): −0.0478 | AUC HT.ActD (HT-1080): −0.04057 | AUC HT.BHA (HT-1080): 0.02691 | AUC HT.BHT (HT-1080): −0.0849 | AUC HT.BocD (HT-1080): −0.01644 | AUC HT.CHX (HT-1080): 0.09163 | AUC HT.Co2+ (HT-1080): 0.2048 | AUC HT.CspA (HT-1080): −0.04542 | AUC HT.DPQ (HT-1080): 0.04203 | AUC HT.EGTA (HT-1080): −0.006602 | AUC HT.Gd3+ (HT-1080): −0.03215 | AUC HT.LNAME (HT-1080): 0.03977 | AUC HT.Lmim (HT-1080): 0.08631 | AUC HT.NAD+ (HT-1080): 0.07889 | AUC HT.NMMA (HT-1080): −0.0482 | AUC HT.Nec-1 (HT-1080): 0.02294 | AUC HT.Pepstatin (HT-1080): 0.001474 | AUC HT.SP600125 (HT-1080): −0.04919 | AUC HT.TLCK (HT-1080): 0.04647 | AUC HT.U0126 (HT-1080): 0.1491 | HT.atoc (AUC) (HT-1080): 0.216 | HT.bCarotene (AUC) (HT-1080): −0.02846 | HT.deferox (AUC) (HT-1080): 0.08359 | HT.digoxin (AUC) (HT-1080): −0.003809 | HT.trolox (AUC) (HT-1080): 0.02477 | HT.zVAD (AUC) (HT-1080): −0.0551 | AUC, modulator HT.3MA (HT-1080): −0.001968 | AUC, modulator HT.ALLN (HT-1080): 0.1053 | AUC, modulator BJ.3MA (BJeLR): 0.0947 | AUC, modulator BJ.ALLN (BJeLR): −0.03319 | AUC, modulator BJ.Boc D (BJeLR): −0.0465 | AUC, modulator BJ.CHX (BJeLR): −0.08681 | AUC, modulator BJ.Co2+ (BJeLR): 0.09572 | AUC, modulator BJ.DPQ (BJeLR): −0.01655 | AUC, modulator BJ.Gd3+ (BJeLR): −0.001577 | AUC, modulator BJ.LNAME (BJeLR): −0.02103 | AUC, modulator BJ.Lmin/NAD+ (BJeLR): −0.01947 | AUC, modulator BJ.Lmin (BJeLR): −0.0142 | AUC, modulator BJ.NAD+ (BJeLR): 0.03941 | AUC, modulator BJ.NMMA (BJeLR): −0.02498 | AUC, modulator BJ.Nec-1 (BJeLR): 0.0816 | AUC, modulator BJ.Pepstatin (BJeLR): 0.07639 | AUC, modulator BJ.TLCK (BJeLR): 0.01375 | AUC, modulator BJ.atoc (BJeLR): 0.05385 | AUC, modulator BJ.trolox (BJeLR): 0.08302 | AUC, modulator BJ.zVAD (BJeLR): −0.04705

[N-]=[N+]=[N-].[Na+] [NaN3]
AUC HT.ATA (HT-1080): 0.03107 | AUC HT.ActD (HT-1080): 0.1197 | AUC HT.BHA (HT-1080): −0.04061 | AUC HT.BHT (HT-1080): −0.1432 | AUC HT.BocD (HT-1080): 0.008996 | AUC HT.CHX (HT-1080): 0.04722 | AUC HT.Co2+ (HT-1080): 0.03941 | AUC HT.CspA (HT-1080): −0.04777 | AUC HT.DPQ (HT-1080): −0.00797 | AUC HT.EGTA (HT-1080): −0.002548 | AUC HT.Gd3+ (HT-1080): −0.004604 | AUC HT.LNAME (HT-1080): −0.01351 | AUC HT.Lmim (HT-1080): −0.07613 | AUC HT.NAD+ (HT-1080): 0.06683 | AUC HT.NMMA (HT-1080): 0.002822 | AUC HT.Nec-1 (HT-1080): −0.02968 | AUC HT.Pepstatin (HT-1080): −0.004337 | AUC HT.SP600125 (HT-1080): −0.004079 | AUC HT.TLCK (HT-1080): 0.0226 | AUC HT.U0126 (HT-1080): 0.02567 | HT.atoc (AUC) (HT-1080): −0.031 | HT.bCarotene (AUC) (HT-1080): 0.00681 | HT.deferox (AUC) (HT-1080): 0.07882 | HT.digoxin (AUC) (HT-1080): 0.01948 | HT.trolox (AUC) (HT-1080): −0.001376 | HT.zVAD (AUC) (HT-1080): 0.01031 | AUC, modulator HT.3MA (HT-1080): −0.05719 | AUC, modulator HT.ALLN (HT-1080): 0.06335 | AUC, modulator BJ.3MA (BJeLR): −0.09559 | AUC, modulator BJ.ALLN (BJeLR): −0.00382 | AUC, modulator BJ.Boc D (BJeLR): −0.007273 | AUC, modulator BJ.CHX (BJeLR): 0.07262 | AUC, modulator BJ.Co2+ (BJeLR): −0.02123 | AUC, modulator BJ.DPQ (BJeLR): −0.06947 | AUC, modulator BJ.Gd3+ (BJeLR): 0.01113 | AUC, modulator BJ.LNAME (BJeLR): −0.01832 | AUC, modulator BJ.Lmin/NAD+ (BJeLR): −0.007837 | AUC, modulator BJ.Lmin (BJeLR): −0.08417 | AUC, modulator BJ.NAD+ (BJeLR): 0.0696 | AUC, modulator BJ.NMMA (BJeLR): 0.005874 | AUC, modulator BJ.Nec-1 (BJeLR): −0.05229 | AUC, modulator BJ.Pepstatin (BJeLR): 0.01611 | AUC, modulator BJ.TLCK (BJeLR): 0.032 | AUC, modulator BJ.atoc (BJeLR): −0.005135 | AUC, modulator BJ.trolox (BJeLR): −0.03837 | AUC, modulator BJ.zVAD (BJeLR): −0.001065
